The test system of one assay is anti-CPPU mAb. Briefly: optimized indirect competitive ELISA (icELISA) with anti-CPPU monoclonal antibody. Type of assay: binding, mouse. The following applies: for Cross-Reactivity: CR (%) = IC50 CPPU/IC50 structural analogue × 100. The protocol:
(§1) The icELISA protocol was performed as described previously. Briefly, 100 µL/well of coating antigen (1 µg/mL in CBS) was added to 96-well microtiter plates and stored at 37 °C overnight. The plate was rinsed twice with washing buffer and blocked by PBST containing 5% skimmed milk powder (120 µL/well) for 3 h at 37 °C. Then, the plate was rinsed twice and dried at 37 °C for 60 min. CPPU standard in PBS (50 µL) and the antibodies diluted in PBS (50 µL) were added and incubated at 37 °C for 40 min. After rinsing five times, the goat anti-mouse IgG-HRP was added (100 µL/well), followed by incubation for 30 min at 37 °C. After rinsing five times, the TMB solution (100 µL/well) was added and incubated for another 10 min at 37 °C. Stopping reagent (50 µL/well) was injected into each well to stop the chromogenic reaction, and the absorbance at 450 nm was measured using a microplate reader.
Many reports have shown that the immunoassay is an equilibrium binding reaction, and the experimental parameters used can affect the performance of the ELISA [28, 31, 32, 33]. In order to improve sensitivity of the established icELISA, the assay was optimized on concentrations of coating antigen and antibody, working buffer, and IgG-HRP dilution multiple. A standard curve for CPPU was obtained under optimal conditions by four-parameter sigmoidal fitting with Origin 9.0 software (OriginLab Corporation, Northampton, MA, USA). The IC10, IC20, IC50, and IC80 values correspond to the CPPU concentration levels that inhibit 10%, 20%, 50%, and 80% of the binding between mAb and the coating antigen, respectively. The IC10 value represents the LOD of the assay. The concentration levels from IC20 to IC80 are the linear range of the assay.
To evaluate the specificity of the mAb against CPPU, CR values with six structural analogs were chosen for evaluation. The CR values were calculated using Equation (1):CR (%) = IC50 CPPU/IC50 structural analogue × 100(1)

The test system of assay [1] is monoclonal antibody (mAb). Details: method as in doi:10.14088/j.cnki.issn0439-8114.2016.21.037. To be noted: immunogen CPPU-H1-BSA, coating antigen CPPU-H2-OVA; cited from earlier work.
The next assay has as its system antisera to CPPU. Details: method as in PMID 18989973, PMID 20681638, PMID 22526663. The following applies: high-affinity antisera, Abad-Fuentes group; cited from earlier work.
The test system of assay [2] is rabbit polyclonal antibody. Details: method as in earlier work. To be noted: rabbit polyclonal antibody icELISA; cited from earlier work.
Assay [3] has as its system mice antisera against CPPU. Briefly: icELISA characterization of mice antisera: inhibition by CPPU. Type of assay: binding, mouse. The following applies: 1 μg/mL of competitor. The protocol: At the first immunization, each eight-week-old Balb/c female mouse was injected subcutaneously with 200 µL of an emulsion containing an equal volume of immunogen (1.0 mg/mL) and Freund’s complete adjuvant. In the subsequent booster immunizations, Freund’s incomplete adjuvant was substituted for Freund’s complete adjuvant and was injected at two-week intervals. After the third booster injection, the antisera were collected 7 days after each injection and checked by icELISA.
as §1

A further assay relates to monoclonal antibody. On the set-up: method as in PMID 22526663. The following applies: previous mAb-based ELISA for CPPU; cited from earlier work. For orientation: ELISA stands for enzyme-linked immunosorbent assay.
[4] abbreviates: optimum conditions: coating antigen 250 ng/mL, antibody 1:8000 dilution, PBS, IgG-HRP 1:5000.

Converted amounts (≈) assume the structure as drawn. Read-outs that look alike come from different tables or passages of the source.

By IC50 is commonly meant the point on the concentration scale where inhibition reaches its midpoint. Turning to `O=C(O)c1nc(Cl)ccc1Cl` [3,6-Dichloropicolinic], the Cross-Reactivity in the assay with anti-CPPU mAb is given as 0.63%. The compound also registered an IC50 in the assay with anti-CPPU mAb (setting [4]) of 0.1662 µg/mL.

For `O=C(Nc1ccccc1)Nc1ccnc(Cl)c1` [CPPU, Forchlorfenuron], the IC50 is 0.00389 µg/mL (≈ 0.0157 µM) in assay [1]; below 1 nM in the assay on antisera to CPPU; 0.048 µg/mL (≈ 0.194 µM) in assay [2]; 4.2 nM in the assay with anti-CPPU mAb (IC50 1.04 ng/mL given in nM, read-out: IC50); 0.00104 µg/mL in the assay on anti-CPPU mAb (setting [4]). Also, the LOD in assay [2] is reported as 1 ng/mL. For the same compound, the Cross-Reactivity with anti-CPPU mAb is 100%. Also, the “limit of detection (LOD, IC10)” value in the assay on anti-CPPU mAb (optimum conditions, IC10 value represents the LOD) was 0.00016 µg/mL. The “Inhibition of CPPU” value in assay [3] (immunogen CPPU-COOH-BSA, coating antigen CPPU-COOH-OVA) is reported as 58.4%; in assay [3] (immunogen CPPU-COOH-KLH, coating antigen CPPU-COOH-BSA), 55.6%; in assay [3] (immunogen CPPU-COOH-KLH, coating antigen CPPU-COOH-OVA), 55.9%; in assay [3] (immunogen CPPU-COOH-THY, coating antigen CPPU-COOH-BSA) it was 83.3%; in assay [3] (immunogen CPPU-COOH-THY, coating antigen CPPU-COOH-OVA) it was 82.9%.

For `Cc1ccc(NC(=O)N(C)C)cc1Cl` [Chlortoluron], the Cross-Reactivity in the assay on anti-CPPU mAb was 1.62%. Further, the IC50 in the assay on anti-CPPU mAb (setting [4]) is 0.06434 µg/mL.

In the assay on anti-CPPU mAb, `CN(C)C(=O)Nc1ccc(Cl)c(Cl)c1` [Diuron] had a Cross-Reactivity of 0.13%. The IC50 in the assay with anti-CPPU mAb (setting [4]) was 0.82379 µg/mL.

Take `CON(C)C(=O)Nc1ccc(Cl)c(Cl)c1` [Linuron]: the Cross-Reactivity in the assay with anti-CPPU mAb is recorded as 0.46%. For the same compound, the IC50 with anti-CPPU mAb (setting [4]) turned out to be 0.22643 µg/mL.

As to `Nc1c(Cl)c(Cl)nc(C(=O)O)c1Cl` [Picloram], the Cross-Reactivity in the assay with anti-CPPU mAb stood at 0.23%. Besides, in the assay with anti-CPPU mAb (setting [4]), the IC50 is 0.45072 µg/mL.

For the compound `O=C(Nc1ccccc1)Nc1cnns1` [Thidiazuron (TDZ), Thidiazuron], the figures for the Cross-Reactivity in the assay with anti-CPPU mAb and with anti-CPPU mAb (listed as TDZ) were 5.36% and “less than 6%”, respectively. Moreover, in the assay with anti-CPPU mAb (setting [4]), the IC50 came to 0.01942 µg/mL. Further, the “cross-reactivity (CR)” value in the assay on monoclonal antibody is 71%.

(Values after article PMC8869720, “A Sensitive Monoclonal-Antibody-Based ELISA for Forchlorfenuron Residue Analysis in Food Samples” (Biosensors, 2022).)
